The values that follow are results of earlier work, collected in patent EP4516295A1, “PH-INDUCIBLE STRUCTURE-SWITCHING LIPID NANOVECTORS, SEMI-SYNTHETIC EXTRACELLULAR VESICLES, METHODS OF MAKING SAME AND USES THEREOF” (ETH Zurich, priority 2023, dated 2025).

For this series the following is noted: apparent acid dissociation constant prior to incorporation in LNVs.
Consider `CCCCCCCCC(CCCCCC)C(=O)OCCCCCCN(CCCCO)CCCCCCOC(=O)C(CCCCCC)CCCCCCCC` (stereo not drawn) [ALC-0315], for which the pKa is on record as 6.09. On to `CCCC/C=C\C/C=C\CCCCCCCCCC1(CCCCCCCC/C=C\C/C=C\CCCCC)OCC(CN(C)C)O1` [D-Lin-K-DMA, N,N-dimethyl-1-(2-((10Z,13Z)-octadeca-10,13-dien-1-yl)-2-((9Z,12Z)-octadeca-9,12-dien-1-yl)-1,3-dioxolan-4 yl)methanamine], for which the pKa is 5.9. With `CCCCC/C=C\C/C=C\CCCCCCCCOCC(CN(C)C)OCCCCCCCC/C=C\C/C=C\CCCCC` (stereo not drawn) [DLin-DMA, 1,2-dilinoleyloxy-N,N-dimethyl-3-aminopropane], the pKa is 6.8. As to `CCCC/C=C\C/C=C\CCCCCCCCCC1(CCCCCCCC/C=C\C/C=C\CCCCC)OCC(CCN(C)C)O1` (stereo not drawn) [DLin-KC2-DMA, N,N-dimethyl-2-(2-((10Z,13Z)-octadeca-10,13-dien-1-yl)-2-((9Z,12Z)-octadeca-9,12-dien-1-yl)-1,3-dioxolan-4-yl)ethan-1-amine], the pKa is given as 6.68. As to `CCCC/C=C\C/C=C\CCCCCCCCCC1(CCCCCCCC/C=C\C/C=C\CCCCC)OCC(CCCN(C)C)O1` (stereo not drawn) [DLin-KC3-DMA, N,N-dimethyl-3-(2-((10Z,13Z)-octadeca-10,13-dien-1-yl)-2-((9Z,12Z)-octadeca-9,12-dien-1-yl)-1,3-dioxolan-4-yl)propan-1-amine], the pKa is 7.2.

`CCCC/C=C\C/C=C\CCCCCCCCCC1(CCCCCCCC/C=C\C/C=C\CCCCC)OCC(CCCCN(C)C)O1` (stereo not drawn) [DLin-KC4-DMA, N,N-dimethyl-4-(2-((10Z,13Z)-octadeca-10,13-dien-1-yl)-2-((9Z,12Z)-octadeca-9,12-dien-1-yl)-1,3-dioxolan-4-yl)butan-1-amine]: the pKa is given as 7.3. As to `CCCCC/C=C\C/C=C\CCCCCCCCC(CCCCCCCC/C=C\C/C=C\CCCCC)OC(=O)CCCN(C)C` [DLin-MC3-DMA, 4-(dimethylamino)-butanoic acid, (10Z,13Z)-1-(9Z,12Z)-9,12-octadecadien-1-yl-10,13-nonadecadien-1-yl ester], the pKa was 6.44. On to `CCCCCC/C=C\COC(=O)CCCCCCCC(CCCCCCCC(=O)OC/C=C\CCCCCC)OC(=O)CCCN(C)C` [L319], for which the pKa is listed as 6.38.

For `CCCCCCCCCCCOC(=O)CCCCCN(CCO)CCCCCCCC(=O)OC(CCCCCCCC)CCCCCCCC` [SM-102], the pKa is listed as 6.68.
